Assay results from publication PMC4241505 (Nature communications, 2014).
Ends that are not written are not given here.

Tested on: cathepsins B, H, and S
Conditions: pH 5

Compound	Peptides detected on MALDI after digesting synthetic epitope with cathepsins
CC(C)C[C@H](NC(=O)[C@H](CCCCN)NC(=O)[C@H](CC(C)C)NC(=O)[C@@H](NC(=O)[C@H](CC(N)=O)NC(=O)[C@H](CCC(N)=O)NC(=O)[C@H](CCCCN)NC(=O)[C@@H](NC(=O)[C@H](Cc1ccc(O)cc1)NC(=O)[C@H](CCCCN)NC(=O)[C@@H]1CCCN1)C(C)C)[C@@H](C)O)C(=O)N[C@@H](C)C(=O)N[C@H](C(=O)O)[C@@H](C)O [HA(306–318)]	PKYVKQNTLK (m/z 1218 Da)
NRERRGIALDGKIKHE [hSA(291–306)]	NRERRGIALDGKIKHE (m/z 1892 Da) NRERRGIALDGKIK (m/z 1627 Da)
